In patent US9545395B2, “Method and composition for enhancement of male erectile function” (priority 2008, dated 2017):

System: male erectile function (penis)
Assay: Clinical observations and case reports (Patients A-G): erectile response of men after local or systemic application
Format: in vivo, man
Conditions: for persistence of improvements after the last injection: after last IGF1 injection
[1] = Patient C, severe erectile dysfunction, maximal doses, before treatment
[2] = Patient C, maximal oral doses with daily topical androgens
[3] = Patient D, maximal oral doses combined with intracavernosal injections, before local IGF1
[4] = Patient D, oral medication without intracavernosal injections, after local IGF1
[5] = Patient D, oral medications, baseline
[6] = Patient G, oral medication, baseline
[7] = Patient E, four weekly IGF1 injections plus 2.5% testosterone cream

CCCCC[C@H](O)/C=C/[C@H]1[C@H](O)CC(=O)[C@@H]1CCCCCCC(=O)O [prostaglandin E1]
erection firmness (Patient A (person one), 1.5 ug prostaglandin E1 intracavernosally alone): 70-75%
erection firmness (Patient B, venous leakage, 6 ug prostaglandin E1 intracavernosally alone): 60%
duration of erection (Patient B, 6 ug prostaglandin E1 intracavernosally alone): about 30 mins
erectile response (Patient C, maximum doses of PGE1 40 ug/ml plus triple mix papavarine, atropine, phentolamine): unable to obtain a usable erection

Growth Hormone: Growth Hormone injections daily (Human Growth Hormone)
erectile function (Patient D, daily Growth Hormone injections, 1 year): did not report a significant improvement in their erectile function

CCCc1nn(C)c2c(=O)[nH]c(-c3cc(S(=O)(=O)N4CCN(C)CC4)ccc3OCC)nc12 [Viagra]
erectile response [1]: not having any erections
erectile response [2]: still could not function
erectile response [3]: frequently going soft during intercourse
erectile response [4]: getting usable erections
erectile response [5]: not responding
erectile response [6]: not able function sexually

IGF1: IGF-1 (Somatomedin-C), full length protein of 70 amino acids in a single chain with three intramolecular disulfide bridges
erectile response (Patient C, 10-20 ug IGF-1 or 6-10 ug LR3 IGF1 sub-cutaneously plus topical 1% testosterone gel, 3-4 times per week, one month): erections dramatically improved
reduction of intracavernosal medication dose (Patient D, after penile and intracavernosal IGF1 (5-10 ug combined with intracavernosal injections)): over 50%
erectile function (Patient D, some of the daily 50-100 ug IGF1 injections applied intermittently into the penis): immediately experienced improved erectile function
erectile response (Patient D, systemic IGF1 50-100 ug/day subcutaneously in abdomen, with intracavernosal meds): not getting adequate erections
persistence of improvements after the last injection (Patient E): persisted for several weeks
duration of erection after an intracavernosal injection [7]: over 40 minutes
hardness of erection after an intracavernosal injection [7]: over 80%
erectile function (Patient E, four weekly subcutaneous IGF1 injections into penis shaft plus 2.5% testosterone cream twice daily): dramatically improved the patient's erectile function
persistence of improvements after the last injection (Patient G): persist for several weeks
erectile function (Patient G, twice weekly subcutaneous 25 ug IGF1 into penis shaft, after Dihydrotestosterone cream): immediately began experiencing firmer spontaneous erections
time to functional erections without the need for PDE5's (men relying on PDE5's, higher locally applied penile doses): 1-2 weeks
time after discontinuation until improvement noticeably started weakening (men who had used only a couple of doses, essentially gone after a month): 1-2 weeks
erectile function (men, 50-100 μg once per week sub-cutaneously or subdermally in the penis): dramatic improvement in their erectile function

CN1CC(=O)N2[C@H](c3ccc4c(c3)OCO4)c3[nH]c4ccccc4c3C[C@@H]2C1=O [Cialis]
erectile response [1]: not having any erections
erectile response [2]: still could not function
erectile response [3]: frequently going soft during intercourse
erectile response [4]: getting usable erections
erectile response [5]: not responding
erectile response [6]: not able function sexually

CCCc1nc(C)c2c(=O)[nH]c(-c3cc(S(=O)(=O)N4CCN(CC)CC4)ccc3OCC)nn12 [Levitra]
erectile response [1]: not having any erections
erectile response [2]: still could not function
erectile response [3]: frequently going soft during intercourse
erectile response [4]: getting usable erections
erectile response [5]: not responding
erectile response [6]: not able function sexually

C[C@]12CC[C@H]3[C@@H](CCC4=CC(=O)CC[C@@]43C)[C@@H]1CC[C@@H]2O [Testosterone]
erectile function after about a month (Patient B, 10 mg Testosterone + 6 mcg LR3 IGF1 + 6 mcg PGE1 IC, 2-3 times per week): able to have sexual intercourse without any medications
erectile response (Patient B, 10 mg Testosterone added to IC mixture of 6 mcg LR3 IGF1 plus 6 mcg PGE1, 2-3 times per week): dramatically harder and firmer erections
